Laboratory results published in US20030181335A1, “Novel 3- (4-cyanophenyl) uracils” (priority 1995, published 2003).

Columns and labels:
Test in all cases: Greenhouse herbicidal activity, post-emergence
Assay type in all cases: in vivo
Conditions in all cases: application rate 0.0156 or 0.0078 kg of a.i./ha
Galium aparine = tested on: Galium aparine
Source text: (§1) The culture containers used were plastic flower pots containing loamy sand with approximately 3.0% of humus as the substrate. The seeds of the test plants were sown separately for each species.
(§2) For the post-emergence treatment, the test plants were first grown to a plant height of 3 to 15 cm, depending on the growth form, and only then treated with the active ingredients which were suspended or emulsified in water. The test plants were either sown directly and grown in the same containers, or grown separately as seedlings and transplanted to the test containers a few days prior to treatment. The application rate for the post-emergence treatment was 0.0156 or 0.0078 kg of a.i. (active ingredient) per ha.
(§3) The plants were kept at from 10-25° C. or 20-35° C., depending on the species. The test period extended to 2-4 weeks. During this time, the plants were tended and their response to individual treatments was evaluated.
(§4) Evaluation was carried out using a scale from 0 to 100. 100 means no emergence of the plants, or complete destruction of at least the aerial parts, and 0 means no damage or normal course of growth.
(§5) The plants used for the greenhouse experiments were the following species: […]

Abutilon theophrasti = tested on: Abutilon theophrasti
Source text: as §1, §2, §3, §4, §5

Solanum nigrum = tested on: Solanum nigrum
Source text: as §1, §2, §3, §4, §5

Ipomoea subspecies = tested on: Ipomoea subspecies
Source text: as §1, §2, §3, §4, §5

COc1cc(-n2c(=O)cc(C(F)(F)F)n(N)c2=O)ccc1C#N [Compound No. I.02, 1-Amino-3-[4-cyano-3-methoxyphenyl]-6-trifluoromethyl-1,2,3,4-tetrahydropyrimidine-2,4-dione]
very effective: herbicidal action against Galium aparine (catchweed bedstraw) (Galium aparine) | herbicidal action against Abutilon theophrasti (velvet leaf) (Abutilon theophrasti) | herbicidal action against Solanum nigrum (black nightshade) (Solanum nigrum) | herbicidal action against Ipomoea subspecies (morningglory) (Ipomoea subspecies)
